In ChEMBL document CHEMBL5034004, “Discovery of M3 Antagonist-PDE4 Inhibitor Dual Pharmacology Molecules for the Treatment of Chronic Obstructive Pulmonary Disease” (J Med Chem, 2021):
≈ marks a conversion by molar mass, not a printed value.

Columns and labels:
[1] = target: T1, Muscarinic acetylcholine receptor M3 (Homo sapiens, UniProt P20309); experiment: Displacement of [3H]-N-methyl Scopolamine Chloride from human M3 receptor membranes incubated for 2 hrs by scintillation counting analysis; type: cell membranes, Cell membrane
Target sequence in this assay (P20309 whole entry): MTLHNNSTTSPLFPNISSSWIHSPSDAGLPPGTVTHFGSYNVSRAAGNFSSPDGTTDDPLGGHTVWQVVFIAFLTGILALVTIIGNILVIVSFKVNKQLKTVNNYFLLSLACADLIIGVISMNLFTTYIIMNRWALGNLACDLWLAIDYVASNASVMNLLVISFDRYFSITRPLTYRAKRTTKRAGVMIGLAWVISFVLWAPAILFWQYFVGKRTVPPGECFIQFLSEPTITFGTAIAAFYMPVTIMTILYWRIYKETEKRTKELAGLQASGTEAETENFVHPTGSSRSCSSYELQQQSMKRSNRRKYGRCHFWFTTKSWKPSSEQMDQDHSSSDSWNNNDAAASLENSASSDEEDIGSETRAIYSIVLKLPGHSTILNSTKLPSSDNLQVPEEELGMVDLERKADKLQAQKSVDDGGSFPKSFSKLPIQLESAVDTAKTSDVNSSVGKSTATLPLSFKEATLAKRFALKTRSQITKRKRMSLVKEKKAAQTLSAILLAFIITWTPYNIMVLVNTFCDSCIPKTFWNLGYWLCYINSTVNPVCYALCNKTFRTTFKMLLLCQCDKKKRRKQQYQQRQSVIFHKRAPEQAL

[2] = Antagonist activity at muscarinic M3 receptor in guinea pig trachea assessed as inhibition of carbachol-induced contraction; type: tissue-based, Cavia porcellus
[3] = Kinetic solubility of compound in PBS at pH 7.4 […] incubated for 2 hrs by LC-UV and LC-MS analysis; type: physicochemical; details: read-out: Kinetic_solubility
[4] = target: 3',5'-cyclic phosphodiesterase; experiment: Inhibition of PDE4 in human U-937 cells assessed as […] in cAMP level by LANCE cAMP Assay; type: cell-based
[5] = target: 3',5'-cyclic-AMP phosphodiesterase 4B (Homo sapiens, UniProt Q07343); experiment: Inhibition of human recombinant PDE4B2 assessed as […] in cAMP level incubated for 2 hrs by LANCE Ultra cAMP TR-FRET assay
Sequence of 3',5'-cyclic-AMP phosphodiesterase 4B (Q07343 whole entry): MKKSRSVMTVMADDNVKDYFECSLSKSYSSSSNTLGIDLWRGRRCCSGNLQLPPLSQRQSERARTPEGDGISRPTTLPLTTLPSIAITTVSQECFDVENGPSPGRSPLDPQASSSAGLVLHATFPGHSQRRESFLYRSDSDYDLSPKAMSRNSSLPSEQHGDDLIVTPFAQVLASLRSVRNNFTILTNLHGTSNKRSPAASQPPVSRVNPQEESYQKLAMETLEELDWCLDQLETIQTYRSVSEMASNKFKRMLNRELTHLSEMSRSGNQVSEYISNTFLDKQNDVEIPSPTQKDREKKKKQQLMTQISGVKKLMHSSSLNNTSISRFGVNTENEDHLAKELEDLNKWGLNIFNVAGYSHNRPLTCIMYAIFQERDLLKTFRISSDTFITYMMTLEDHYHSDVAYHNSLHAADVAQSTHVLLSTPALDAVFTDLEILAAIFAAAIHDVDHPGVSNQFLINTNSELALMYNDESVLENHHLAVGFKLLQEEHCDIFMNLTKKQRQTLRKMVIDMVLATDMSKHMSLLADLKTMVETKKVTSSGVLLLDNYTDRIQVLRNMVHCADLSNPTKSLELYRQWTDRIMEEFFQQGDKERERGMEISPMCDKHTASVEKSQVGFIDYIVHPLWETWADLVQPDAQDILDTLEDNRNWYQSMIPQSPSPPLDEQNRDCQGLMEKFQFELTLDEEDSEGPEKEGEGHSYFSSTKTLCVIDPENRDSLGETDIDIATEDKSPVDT

[6] = Antiinflammatory activity in human PBMCs assessed as inhibition of LPS-induced TNF-alpha release measured after 18 hrs by ELISA; type: functional, tissue-based, PBMC; details: for IC50: Homo sapiens, PBMC, 18 h; for pIC50: pbmc
[7] = system: Cavia porcellus; experiment: Bronchodilatory activity in Dunkin Hartley guinea pig model assessed as inhibition of acetylcholine-induced bronchoconstriction at 10 nmol/kg, IT measured after 1 hr by Konzett-Roessler methodology relative to control; type: functional
[8] = system: Cavia porcellus; experiment: Bronchodilatory activity in IT dosed Dunkin Hartley guinea pig model assessed as inhibition of acetylcholine-induced bronchoconstriction measured after 1 hr by Konzett-Roessler methodology; type: functional
[9] = target: Muscarinic acetylcholine receptor M3 (Rattus norvegicus, UniProt P08483); experiment: Antagonist activity at muscarinic M3 receptor in rat trachea assessed as inhibition of carbachol-induced contraction; type: functional, tissue-based
Sequence of Muscarinic acetylcholine receptor M3 (Rattus norvegicus, UniProt P08483) (P08483 whole entry): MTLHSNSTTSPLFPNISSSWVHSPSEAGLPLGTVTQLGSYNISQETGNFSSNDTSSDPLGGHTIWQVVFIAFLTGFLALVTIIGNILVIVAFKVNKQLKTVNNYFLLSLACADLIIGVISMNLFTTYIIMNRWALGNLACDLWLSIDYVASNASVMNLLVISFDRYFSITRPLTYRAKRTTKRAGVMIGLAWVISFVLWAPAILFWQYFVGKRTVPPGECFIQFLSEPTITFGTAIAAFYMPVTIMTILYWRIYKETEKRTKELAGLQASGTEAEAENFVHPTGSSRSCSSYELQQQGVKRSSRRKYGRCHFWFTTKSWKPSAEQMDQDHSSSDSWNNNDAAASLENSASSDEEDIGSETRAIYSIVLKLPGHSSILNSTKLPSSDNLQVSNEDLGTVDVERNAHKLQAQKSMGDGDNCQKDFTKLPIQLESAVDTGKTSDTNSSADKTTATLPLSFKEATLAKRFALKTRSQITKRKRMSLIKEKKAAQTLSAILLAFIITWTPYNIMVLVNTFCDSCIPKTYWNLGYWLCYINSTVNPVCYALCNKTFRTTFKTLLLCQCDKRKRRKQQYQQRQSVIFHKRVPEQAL

[10] = system: Cavia porcellus; experiment: Bronchodilatory activity in Dunkin Hartley guinea pig model assessed as inhibition of acetylcholine-induced bronchoconstriction at 30 nmol/kg, IT measured after 1 hrs by Konzett-Roessler methodology relative to control; type: functional
[11] = system: Cavia porcellus; experiment: Bronchodilatory activity in Dunkin Hartley guinea pig model assessed as inhibition of acetylcholine-induced bronchoconstriction at 30 nmol/kg, IT measured after 16 hrs by Konzett-Roessler methodology relative to control; type: functional
[12] = system: Cavia porcellus; experiment: Bronchodilatory activity in Dunkin Hartley guinea pig model assessed as inhibition of acetylcholine-induced bronchoconstriction at 3 nmol/kg, IT measured after 1 hr by Konzett-Roessler methodology relative to control; type: functional; details: Cavia porcellus, Dunkin Hartley
[13] = target: T1, Muscarinic acetylcholine receptor M3; experiment: Binding affinity to human M3 receptor membranes assessed as association half life by liquid scintillation counting analysis; details: Cell membrane, filed as antagonist
Target sequence in this assay (P20309 whole entry, looked up): as the sequence (P20309 whole entry) above

[14] = target: T1, Muscarinic acetylcholine receptor M3; experiment: Binding affinity to human M3 receptor membranes assessed as dissociation half life by liquid scintillation counting analysis; details: Cell membrane, filed as antagonist
Target sequence in this assay (P20309 whole entry, looked up): as the sequence (P20309 whole entry) above

[15] = Toxicity in ferret assessed as nausea-like score at 10 umol/kg, IT observed for 4 hrs (Rvb= 12.83+/-5.10); design: species or system Mustela putorius furo; details: in vivo, inhaled_or_intranasal, dose 10 µmol/kg
[16] = Toxicity in ferret assessed as induction of emesis at 10 umol/kg, IT measured for 4 hrs; design: species or system Mustela putorius furo; details: in vivo, inhaled_or_intranasal, dose 10 µmol/kg
[17] = system: Cavia porcellus; experiment: Bronchodilatory activity in Dunkin Hartley guinea pig model assessed as inhibition of acetylcholine-induced bronchoconstriction at 3 nmol/kg, IT measured after 16 hrs by Konzett-Roessler methodology relative to control; type: functional
[18] = Cavia porcellus, Dunkin Hartley, read-out: ED50
[19] = Cavia porcellus, Dunkin Hartley, 1 h, read-out: ED50

SMILES: CC(C)Oc1cc([C@H](Cc2c(Cl)c[n+]([O-])cc2Cl)OC(=O)c2ccc(CN(C(=O)O[C@H]3CN4CCC3CC4)c3ccccc3F)s2)ccc1OC(F)F
- Ki [1]: 0.316 nM
- pIC50 [2]: 7.5
- solubility kinetic at 2 h [3]: < 5 µM

SMILES: CCOc1cc([C@H](Cc2c(Cl)c[n+]([O-])cc2Cl)OC(=O)c2ccc(CN(C(=O)O[C@H]3CN4CCC3CC4)c3ccccc3F)s2)ccc1OC(F)F
- Ki [1]: 0.316 nM
- pIC50 [2]: 8.3
- solubility kinetic at 2 h [3]: < 5 µM

SMILES: O=C(O[C@@H](Cc1c(Cl)c[n+]([O-])cc1Cl)c1ccc(OC(F)F)c(OCC2CC2)c1)c1ccc(CN(C(=O)O[C@H]2CN3CCC2CC3)c2ccccc2F)s1
- Ki [1]: 0.2 nM
- pIC50 [2]: 8.2
- solubility kinetic at 2 h [3]: < 5 µM

SMILES: COc1ccc([C@H](Cc2c(Cl)c[n+]([O-])cc2Cl)OC(=O)c2cccc(CN(C(=O)O[C@H]3CN4CCC3CC4)c3ccccc3)c2)cc1OC
- Ki [1]: 0.316 nM
- pIC50 [2]: 9.2
- pIC50 [4]: 9
- IC50 [5]: 6.31 nM
- IC50 [6]: 5.01 nM

SMILES: COc1cc([C@H](Cc2c(Cl)c[n+]([O-])cc2Cl)OC(=O)c2ccc(CN(C(=O)O[C@H]3CN4CCC3CC4)c3ccccc3F)s2)ccc1OC(F)F
- Ki [1]: 0.251 nM
- pIC50 [2]: 8.2
- solubility kinetic at 2 h [3]: < 5 µM

SMILES: COc1ccc([C@H](Cc2c(Cl)c[n+]([O-])cc2Cl)OC(=O)c2ccc(CN(C(=O)O[C@H]3CN4CCC3CC4)c3ccccn3)s2)cc1OC
- Ki [1]: 0.501 nM
- pIC50 [2]: 8.7
- IC50 [5]: 0.631 nM
- IC50 [6]: 0.501 nM
- inhibition in vivo at 0.01 µmol/kg [7]: 78%

SMILES: COc1ccc([C@H](Cc2c(Cl)c[n+]([O-])cc2Cl)OC(=O)c2ccc(CNC(C(=O)OC3CCN(C)CC3)c3ccccc3)s2)cc1OC (stereo in doubt; 92e)
- Ki [1]: 0.251 nM
- IC50 [5]: 0.501 nM
- pIC50 [6]: 8.6
- ED50 [8, 18]: 0.0041 µmol/kg
- IC50 [9]: 1.58 nM
- inhibition in vivo at 0.03 µmol/kg [10]: 75%
- inhibition in vivo at 0.03 µmol/kg [11]: 2%

SMILES: COc1ccc([C@H](Cc2c(Cl)c[n+]([O-])cc2Cl)OC(=O)c2ccc(CNC(C(=O)O[C@@H]3CCN(C)C3)c3ccccc3)s2)cc1OC (stereo in doubt; 92f)
- Ki [1]: 0.126 nM
- IC50 [5]: 1.58 nM
- pIC50 [6]: 8.5
- ED50 [8, 18]: 0.001 µmol/kg
- inhibition in vivo at 0.003 µmol/kg [12]: 96%
- IC50 [9]: 1.58 nM
- inhibition in vivo at 0.03 µmol/kg [11]: 41%

SMILES: COc1ccc([C@H](Cc2c(Cl)c[n+]([O-])cc2Cl)OC(=O)c2ccc(CN(C(=O)O[C@H]3CN4CCC3CC4)c3ccccc3)s2)cc1OC
- Ki [1]: 0.1 nM
- pIC50 [2]: 8.4
- IC50 [5]: 1 nM
- IC50 [6]: 0.794 nM
- ED50 [8, 19]: 0.0016 µmol/kg
- inhibition in vivo at 0.003 µmol/kg ([12]; 1 h): 82%

SMILES: COc1ccc([C@H](Cc2c(Cl)c[n+]([O-])cc2Cl)OC(=O)c2cccc(NC(C(=O)O[C@H]3CN4CCC3CC4)c3ccccc3)c2)cc1OC (stereo partly specified)
- Ki [1]: 0.398 nM
- pIC50 [2]: 7.7
- pIC50 [4]: 9.8

SMILES: O=C(O[C@@H](Cc1c(Cl)c[n+]([O-])cc1Cl)c1ccc(OC(F)F)c(OCC2CC2)c1)c1cccc(NC(C(=O)O[C@H]2CN3CCC2CC3)c2ccccc2)c1 (stereo partly specified)
- Ki [1]: 0.794 nM
- pIC50 [2]: < 6
- pIC50 [4]: 9

SMILES: COc1ccc([C@H](Cc2c(Cl)c[n+]([O-])cc2Cl)OC(=O)c2ccc(CNC(C(=O)O[C@H]3CN4CCC3CC4)c3ccccc3)s2)cc1OC (stereo in doubt; 92a)
- T1/2 [13]: 13.7 h
- T1/2 [14]: 29.5 h

SMILES: COc1ccc([C@H](Cc2c(Cl)c[n+]([O-])cc2Cl)OC(=O)c2cccc(CNC(C(=O)O[C@H]3CN4CCC3CC4)c3ccccc3)c2)cc1OC (stereo in doubt; 86a)
- Ki [1]: 0.398 nM
- pIC50 [2]: 8.2
- pIC50 [4]: 9.5

SMILES: O=C(O[C@@H](Cc1c(Cl)c[n+]([O-])cc1Cl)c1ccc(OC(F)F)c(OCC2CC2)c1)c1cccc(S(=O)(=O)NC(C(=O)O[C@H]2CN3CCC2CC3)c2ccccc2)c1 (stereo partly specified)
- Ki [1]: 1.26 nM
- pIC50 [2]: 7.3
- pIC50 [4]: 10

SMILES: O=C(Nc1c(Cl)cncc1Cl)c1ccc(OC(F)F)c(OCC2CC2)c1 [ROFLUMILAST]
- Activity [15]: 72.5
- Activity [16]: Toxic

SMILES: COc1ccc([C@H](Cc2c(Cl)c[n+]([O-])cc2Cl)OC(=O)c2ccc(CNC(C(=O)O[C@H]3CN4CCC3CC4)c3ccccc3)s2)cc1OC (stereo in doubt; 91a)
- Ki [1]: 0.126 nM
- pIC50 [2]: 8.9
- IC50 [5]: 1.58 nM
- IC50 [6]: 3.16 nM
- ED50 ([8]; 1 h): 0.0016 µmol/kg
- inhibition in vivo at 0.003 µmol/kg ([12]; 1 h): 73%
- inhibition (INH) ([17]; 0.003 umol/kg): 32%
- IC50 [9]: 2 nM

SMILES: COc1ccc([C@H](Cc2c(Cl)c[n+]([O-])cc2Cl)OC(=O)c2ccc(CN(C(=O)O[C@H]3CN4CCC3CC4)c3ccccc3F)s2)cc1OC
- Ki [1]: 0.126 nM
- pIC50 [2]: 9.1
- IC50 [5]: 0.501 nM
- IC50 [6]: 1.26 nM
- solubility kinetic at 2 h [3]: 134 µM (≈ 97.9 µg/mL)
- ED50 [8, 19]: 0.0005 µmol/kg
- inhibition in vivo at 0.003 µmol/kg ([12]; 1 h): 97%
- inhibition in vivo at 0.003 µmol/kg ([17]; Cavia porcellus, Dunkin Hartley): 38%

SMILES: C[N+]1(C)[C@@H]2C[C@H](OC(=O)C(O)(c3cccs3)c3cccs3)C[C@H]1[C@@H]1O[C@@H]12
- T1/2 [13]: 10.3 h
- T1/2 [14]: 22.5 h
